Assay results published in patent publication US7851474B2, “Dipiperazinyl ketones and related analogues” (Neurogen Corporation, priority 2005, dated 2010).

target: T1, chimeric human H3 receptor (Homo sapiens, UniProt Q9Y5N1, E19D); assay: Chimeric human H3 receptor GTP binding assay (agonist-stimulated GTP-gamma35S binding, Example 7); format: biochemical; conditions: assay of Example 7; "*" in Ki of Table II; read-out: Ki
T1 construct: made in house; host or cells: Sf9 insect cells (baculovirus infection); P2 membrane preparation
In short: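 Sf9 membranes co-expressing the chimeric receptor and heterotrimeric G-protein subunits, 35 μg protein per tube, in pH 7.4 Tris buffer with 10 μM GDP. Test compounds at 10^−10 to 10^−6 M with 1 μM histamine, 60 min at room temperature. Filter-bound GTP-gamma^35S read by scintillation; IC50 from non-linear regression of dose-response curves.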

T1 sequence (Q9Y5N1 with tags, fused parts or gaps E19D): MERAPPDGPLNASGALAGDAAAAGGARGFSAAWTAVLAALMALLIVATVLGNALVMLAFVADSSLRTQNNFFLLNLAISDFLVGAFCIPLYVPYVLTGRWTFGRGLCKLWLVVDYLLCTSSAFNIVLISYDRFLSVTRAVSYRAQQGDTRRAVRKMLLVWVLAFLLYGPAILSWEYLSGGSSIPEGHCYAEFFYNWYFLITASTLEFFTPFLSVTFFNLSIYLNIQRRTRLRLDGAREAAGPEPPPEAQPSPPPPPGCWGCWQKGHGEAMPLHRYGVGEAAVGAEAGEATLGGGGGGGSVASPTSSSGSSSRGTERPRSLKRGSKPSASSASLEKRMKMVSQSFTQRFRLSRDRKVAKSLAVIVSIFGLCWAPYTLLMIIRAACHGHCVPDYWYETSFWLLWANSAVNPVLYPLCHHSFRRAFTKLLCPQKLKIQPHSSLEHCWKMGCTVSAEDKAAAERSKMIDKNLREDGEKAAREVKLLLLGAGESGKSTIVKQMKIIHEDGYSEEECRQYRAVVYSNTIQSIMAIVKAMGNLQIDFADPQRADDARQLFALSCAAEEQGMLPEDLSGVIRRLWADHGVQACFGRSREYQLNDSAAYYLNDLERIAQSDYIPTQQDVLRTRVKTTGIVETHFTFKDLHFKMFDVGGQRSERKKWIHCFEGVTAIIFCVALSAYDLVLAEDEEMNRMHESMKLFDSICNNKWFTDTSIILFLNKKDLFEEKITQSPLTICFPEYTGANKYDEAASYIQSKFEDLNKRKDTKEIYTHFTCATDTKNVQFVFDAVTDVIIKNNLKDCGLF

Row | Structure (SMILES) | Ki [µM]
1 | CC(C)OC1=NCN(c2ccccc2)C12CCN(CC(=O)N1CCN(C3CCC3)CC1)CC2 [Compound 1192, 8-[2-(4-cyclobutylpiperazin-1-yl)-2-oxoethyl]-4-isopropoxy-1-phenyl-1,3,8-triazaspiro[4.5]dec-3-ene] | < 1
2 | O=C(OCc1ccccc1)c1cccc(N2CCN(CC(=O)N3CCN(C4CCC4)CC3)CC2)c1 [Compound 1193, benzyl 3-{4-[2-(4-cyclobutylpiperazin-1-yl)-2-oxoethyl]piperazin-1-yl}benzoate] | < 1
3 | O=C(c1ccc(N2CCN(CC(=O)N3CCN(C4CCC4)CC3)CC2)cc1)C1CCC1 [Compound 1194, cyclobutyl(4-{4-[2-(4-cyclobutylpiperazin-1-yl)-2-oxoethyl]piperazin-1-yl}phenyl)methanone] | < 1
4 | CCOC(=O)c1cccc(-c2cnc(N3CCN(CC(=O)N4CCN(C5CCC5)CC4)CC3)cn2)c1 [Compound 1195, ethyl 3-(5-{4-[2-(4-cyclobutylpiperazin-1-yl)-2-oxoethyl]piperazin-1-yl}pyrazin-2-yl)benzoate] | < 1
5 | CCOC(=O)c1cccc(-c2ccc(N3CCN(CC(=O)N4CCN(C5CCC5)CC4)CC3)nn2)c1 [Compound 1196, ethyl 3-(6-{4-(2-(4-cyclobutylpiperazin-1-yl)-2-oxoethyl]piperazin-1-yl}pyridazin-3-yl)benzoate] | < 1
6 | CCOC(=O)c1ccc(-c2cnc(N3CCN(CC(=O)N4CCN(C5CCC5)CC4)CC3)cn2)cc1 [Compound 1197, ethyl 4-(5-{4-[2-(4-cyclobutylpiperazin-1-yl)-2-oxoethyl]piperazin-1-yl}pyrazin-2-yl)benzoate] | < 1
7 | CCOC(=O)c1ccc(-c2ccc(N3CCN(CC(=O)N4CCN(C5CCC5)CC4)CC3)nn2)cc1 [Compound 1198, ethyl 4-(6-{4-[2-(4-cyclobutylpiperazin-1-yl)-2-oxoethyl]piperazin-1-yl}pyridazin-3-yl)benzoate] | < 1
8 | CCOC(=O)c1ccc(-c2ccc(N3CCN(CC(=O)N4CCN(C5CCC5)CC4)CC3)cc2)cc1 [Compound 1199, ethyl 4′-{4-[2-(4-cyclobutylpiperazin-1-yl)-2-oxoethyl]piperazin-1-yl}biphenyl-4-carboxylate] | < 1
9 | CCOC(=O)c1cccc(-c2ccc(N3CCN(CC(=O)N4CCN(C5CCC5)CC4)CC3)cc2)c1 [Compound 1200, ethyl 4′-{4-[2-(4-cyclobutylpiperazin-1-yl)-2-oxoethyl]piperazin-1-yl}biphenyl-3-carboxylate] | < 1
10 | CCOC(=O)c1ccc(N2CCN(CC(=O)N3CCN(C4CCC4)CC3)CC2)cc1 [Compound 1201, ethyl 4-{4-[2-(4-cyclobutylpiperazin-1-yl)-2-oxoethyl]piperazin-1-yl}benzoate] | < 1
11 | COC(=O)c1ccc(N2CCN(CC(=O)N3CCN(C4CCC4)CC3)CC2)nc1 [Compound 1202, methyl 6-{4-[2-(4-cyclobutylpiperazin-1-yl)-2-oxoethyl]piperazin-1-yl}nicotinate] | < 1
12 | CCC(C)NC(=O)c1cccc(N2CCN(CC(=O)N3CCN(C4CCC4)CC3)CC2)c1 (stereo not drawn) [Compound 1203, N-(sec-butyl)-3-{4-[2-(4-cyclobutylpiperazin-1-yl)-2-oxoethyl]piperazin-1-yl}benzamide] | < 1
13 | CCC(C)NC(=O)c1ccc(N2CCN(CC(=O)N3CCN(C4CCC4)CC3)CC2)cc1 (stereo not drawn) [Compound 1204, N-(sec-butyl)-4-{4-[2-(4-cyclobutylpiperazin-1-yl)-2-oxoethyl]piperazin-1-yl}benzamide] | < 1
14 | CCC(C)NC(=O)c1ccc(N2CCN(CC(=O)N3CCN(C4CCC4)CC3)CC2)nc1 (stereo not drawn) [Compound 1205, N-(sec-butyl)-6-{4-[2-(4-cyclobutylpiperazin-1-yl)-2-oxoethyl]piperazin-1-yl}nicotinamide] | < 1
15 | CCN(CC)C1CCN(CC(=O)N2CCN(C(C)C)CC2)C1 (stereo not drawn) [Compound 1206, N,N-diethyl-1-[2-(4-isopropylpiperazin-1-yl)-2-oxoethyl]pyrrolidin-3-amine] | < 1
